Measured values as given in US9993001B2, “Herbicidal composition” (ISHIHARA SANGYO KAISHA, LTD., priority 2014, dated 2018).

Tests used:
Type in all cases: in vivo
[1] = tested on: black nightshade (Solanum nigrum L.); experiment: Test Example 26: pot, soil treatment, metobromuron + prosulfocarb; settings: soil, read-out: Growth inhibition rate of black nightshade (%) Measured value
Description: (§1) When the herbicidal activity in a case where two active ingredients are combined, is larger than the simple sum of the respective herbicidal activities of the two active ingredients (the expected activity), it is called a synergistic effect. The activity expected by the combination of two active ingredients can be calculated as follows (Colby S. R., “Weed”, vol. 15, p. 20-22, 1967). E=α+β−(α×β[…]) where α: growth inhibition rate when treated with x (g/ha) of herbicide X, • β: growth inhibition rate when treated with y (g/ha) of herbicide Y, • E: growth inhibition rate expected when treated with x (g/ha) of herbicide X and y (g/ha) of herbicide Y.
(§2) On the 19th day after treatment, the state of growth of barnyardgrass was visually observed and evaluated in accordance with the following standards. The growth inhibition rate (%) [measured value] and the growth inhibition rate (%) [calculated value] calculated by the Colby's method, are shown in Table 2.
(§3) Growth inhibition rate (%)=inhibition rate) (%) of 0 (equivalent to the non-treated area) to 100 (complete kill)
(§4) Soil was put into a 1/300,000 ha pot, and seeds of black nightshade (Solanum nigrum L.) were sown. On the day after seeding, predetermined amounts of SC containing metobromuron as active ingredient (same as in Test Example 1) and EC containing prosulfocarb as active ingredient (trade name: BOXER NYUZAI, manufactured by Syngenta) were diluted with water corresponding to 1,000 L per hectare and applied for soil treatment.
On the 21st day after treatment, the state of growth of black nightshade was visually observed and evaluated in the same manner as in Test Example 1.

[2] = tested on: black nightshade (Solanum nigrum L.); experiment: Test Example 31: pot, soil treatment, metobromuron + thiobencarb; settings: soil, read-out: Growth inhibition rate of black nightshade (%) Measured value
Description: as §1, §2, §3
as §4, with “common lambsquarters (Chenopodium album” for “black nightshade (Solanum nigrum”, “thiobencarb” for “prosulfocarb”, “Saturn” for “BOXER”, “KUMIAI CHEMICAL INDUSTRY Co., Ltd.)” for “Syngenta)”
On the 20th day after treatment, the state of growth of common lambsquarters was visually observed and evaluated in the same manner as in Test Example 1.
The test was carried out in the same manner as in Test Example 30 except that common lambsquarters (Chenopodium album L.) was changed to black nightshade (Solanum nigrum L.), to obtain the results as shown in Table 32.

[3] = tested on: barnyardgrass (Echinochloa crus-galli L.); experiment: Test Example 32: pot, soil treatment, metobromuron + chlorpropham; settings: soil, read-out: Growth inhibition rate of barnyardgrass (%) Measured value
Description: as §1, §2, §3
as §4, with “barnyardgrass (Echinochloa crus-galli” for “black nightshade (Solanum nigrum”, “chlorpropham” for “prosulfocarb”, “(same as in Test Example 1)” for “(trade name: BOXER NYUZAI, manufactured by Syngenta)”
On the 26th day after treatment, the state of growth of barnyardgrass was visually observed and evaluated in the same manner as in Test Example 1.

[4] = tested on: large crabgrass (Digitaria sanquinalis L.); experiment: Test Example 29: pot, soil treatment, metobromuron + indanofan; settings: soil, read-out: Growth inhibition rate of large crabgrass (%) Measured value
Description: as §1, §2, §3
Soil was put into a 1/300,000 ha pot, and seeds of large crabgrass (Digitaria sanquinalis L.) were sown. On the day after seeding, predetermined amounts of SC containing metobromuron as active ingredient (same as in Test Example 1) and WP containing indanofan as active ingredient were diluted with water corresponding to 1,000 L per hectare and applied for soil treatment.
On the 20th day after treatment, the state of growth of large crabgrass was visually observed and evaluated in the same manner as in Test Example 1.

[5] = tested on: common purslane (Portulaca oleracea L.); experiment: Test Example 12: corn field, soil treatment, metobromuron + nicosulfuron; settings: soil, read-out: Growth inhibition rate of common purslane (%) Measured value
Description: as §1, §2
(§5) Growth inhibition rate (%)=inhibition rate) (%) of 0 (equivalent to the non-treated area) to 100 (complete kill) […]
On the 30th day after treatment, the state of growth of common purslane (Portulaca oleracea L.) which occurred naturally, was visually observed and evaluated in the same manner as in Test Example 1.

[6] = tested on: Nepalese Smartweed (Persicaria nepalensis (Meisn.) H. Gross); experiment: Test Example 3: soybean field, soil treatment, metobromuron + S-metolachlor; settings: soil, read-out: Growth inhibition rate of Nepalese Smartweed (%) Measured value
Description: as §1, §2, §5
On the 50th day after treatment, the state of growth of Nepalese Smartweed (Persicaria nepalensis (Meisn.) H. Gross) which occurred naturally, was visually observed and evaluated in the same manner as in Test Example 1.

[7] = tested on: barnyardgrass (Echinochloa crus-qalli L.); experiment: Test Example 5: adzuki bean field, soil treatment, metobromuron + fluazifop-P-butyl; settings: Echinochloa, soil, read-out: Growth inhibition rate of barnyardgrass (%) Measured value
Description: as §1, §2, §5
On the 39th day after treatment, the state of growth of barnyardgrass (Echinochloa crus-qalli L.) which occurred naturally, was visually observed and evaluated in the same manner as in Test Example 1.

[8] = tested on: common lambsquarters (Chenopodium album L.); experiment: Test Example 8: corn field, soil treatment, metobromuron + S-metolachlor; settings: soil, read-out: Growth inhibition rate of common lambsquarters (%) Measured value
Description: as §1, §2, §5
On the 28th day after treatment, the state of growth of common lambsquarters (Chenopodium album L.) which occurred naturally, was visually observed and evaluated in the same manner as in Test Example 1.

Question: Which inhibition at 250 g/ha [1] does the source give for `CON(C)C(=O)Nc1ccc(Br)cc1` [Metobromuron, 3-(4-bromophenyl)-1-methoxy-1-methylurea] here?
Answer: The inhibition at 250 g/ha was 25%.

Question: What about the inhibition at 375 g/ha [1] of the same molecule?
Answer: Its inhibition at 375 g/ha is 50%.

Question: And the inhibition at 562.5 g/ha [1]?
Answer: Its inhibition at 562.5 g/ha is 68%.

Question: What about the inhibition at 375 g/ha [2] of the same molecule?
Answer: Its inhibition at 375 g/ha is 65%.

Question: And the inhibition at 562.5 g/ha [2]?
Answer: Its inhibition at 562.5 g/ha is 76%.

Question: And the inhibition at 375 g/ha [3]?
Answer: The inhibition at 375 g/ha was 40%.

Question: What about the inhibition at 250 g/ha [4] of the same molecule?
Answer: Its inhibition at 250 g/ha is 30%.

Question: And the inhibition at 375 g/ha [4]?
Answer: The inhibition at 375 g/ha was 50%.

Question: What about the inhibition at 562.5 g/ha [4] of the same molecule?
Answer: The inhibition at 562.5 g/ha was 80%.

Question: And the inhibition at 1000 g/ha [5]?
Answer: Its inhibition at 1000 g/ha is 85%.

Question: What about the inhibition at 1500 g/ha [6] of the same molecule?
Answer: Its inhibition at 1500 g/ha is 30%.

Question: And the inhibition at 1000 g/ha [7]?
Answer: The inhibition at 1000 g/ha was 53%.

Question: What about the inhibition at 1000 g/ha [8] of the same molecule?
Answer: The inhibition at 1000 g/ha was 78%.
